Laboratory results taken from ChEMBL document CHEMBL1201862, “PubChem BioAssay data set” (2004).
Blank lines part the entries; values can stand above or below the compound they belong to. The source made the active and inactive calls.

Assays:
Caspase-3 = molecular target: T1, Caspase-3 (Homo sapiens, UniProt P42574); type: functional;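 further: Dose-response selectivity test against caspase-3 for candidate inhibitors of sentrin-specific proteases (SENPs)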
T1 sequence (P42574 whole entry): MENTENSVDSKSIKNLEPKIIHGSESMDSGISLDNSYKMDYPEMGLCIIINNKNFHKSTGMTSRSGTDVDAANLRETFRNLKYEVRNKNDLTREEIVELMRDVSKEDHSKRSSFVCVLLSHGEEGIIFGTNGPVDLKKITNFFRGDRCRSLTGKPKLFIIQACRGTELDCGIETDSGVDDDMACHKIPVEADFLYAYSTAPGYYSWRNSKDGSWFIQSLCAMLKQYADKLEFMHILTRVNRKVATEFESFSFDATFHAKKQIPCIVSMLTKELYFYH

[1] = molecular target: T2, Sentrin-specific protease 7 (Homo sapiens, UniProt Q9BQF6); type: functional;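 further: Luminescence-based dose-response confirmation of ultra-high-throughput screening hits, measuring inhibition of SENP7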
T2 sequence (Q9BQF6 whole entry): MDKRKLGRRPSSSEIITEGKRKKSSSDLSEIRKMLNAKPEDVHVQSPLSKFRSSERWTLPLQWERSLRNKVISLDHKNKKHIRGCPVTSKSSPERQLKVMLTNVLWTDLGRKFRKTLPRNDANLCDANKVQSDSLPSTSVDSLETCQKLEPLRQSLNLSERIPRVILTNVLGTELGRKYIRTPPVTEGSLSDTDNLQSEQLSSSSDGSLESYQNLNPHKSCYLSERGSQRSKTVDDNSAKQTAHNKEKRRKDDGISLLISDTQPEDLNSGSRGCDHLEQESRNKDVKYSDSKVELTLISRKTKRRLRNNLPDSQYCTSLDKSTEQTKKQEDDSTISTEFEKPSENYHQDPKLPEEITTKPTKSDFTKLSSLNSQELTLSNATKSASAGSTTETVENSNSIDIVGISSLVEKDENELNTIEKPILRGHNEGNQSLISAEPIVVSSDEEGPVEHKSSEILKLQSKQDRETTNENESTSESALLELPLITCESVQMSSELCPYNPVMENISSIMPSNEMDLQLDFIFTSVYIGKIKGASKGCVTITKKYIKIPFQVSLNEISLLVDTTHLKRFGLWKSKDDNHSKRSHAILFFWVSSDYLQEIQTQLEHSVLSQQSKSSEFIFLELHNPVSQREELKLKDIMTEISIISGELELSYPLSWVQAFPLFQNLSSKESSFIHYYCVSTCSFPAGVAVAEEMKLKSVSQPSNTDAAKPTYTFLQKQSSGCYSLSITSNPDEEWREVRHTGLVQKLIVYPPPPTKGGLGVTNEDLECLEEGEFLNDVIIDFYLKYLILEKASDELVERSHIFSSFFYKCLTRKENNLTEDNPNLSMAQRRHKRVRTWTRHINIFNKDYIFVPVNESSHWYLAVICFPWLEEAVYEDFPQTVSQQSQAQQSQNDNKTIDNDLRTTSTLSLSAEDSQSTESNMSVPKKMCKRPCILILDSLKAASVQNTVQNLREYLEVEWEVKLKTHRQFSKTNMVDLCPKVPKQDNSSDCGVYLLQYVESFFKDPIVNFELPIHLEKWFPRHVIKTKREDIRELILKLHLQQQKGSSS

[2] = molecular target: T3, Sentrin-specific protease 6 (Homo sapiens, UniProt Q9GZR1); type: functional;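 further: Luminescence-based dose-response confirmatory assay of SENP6 inhibition, following up an ultra-high-throughput screen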
T3 sequence (Q9GZR1 whole entry): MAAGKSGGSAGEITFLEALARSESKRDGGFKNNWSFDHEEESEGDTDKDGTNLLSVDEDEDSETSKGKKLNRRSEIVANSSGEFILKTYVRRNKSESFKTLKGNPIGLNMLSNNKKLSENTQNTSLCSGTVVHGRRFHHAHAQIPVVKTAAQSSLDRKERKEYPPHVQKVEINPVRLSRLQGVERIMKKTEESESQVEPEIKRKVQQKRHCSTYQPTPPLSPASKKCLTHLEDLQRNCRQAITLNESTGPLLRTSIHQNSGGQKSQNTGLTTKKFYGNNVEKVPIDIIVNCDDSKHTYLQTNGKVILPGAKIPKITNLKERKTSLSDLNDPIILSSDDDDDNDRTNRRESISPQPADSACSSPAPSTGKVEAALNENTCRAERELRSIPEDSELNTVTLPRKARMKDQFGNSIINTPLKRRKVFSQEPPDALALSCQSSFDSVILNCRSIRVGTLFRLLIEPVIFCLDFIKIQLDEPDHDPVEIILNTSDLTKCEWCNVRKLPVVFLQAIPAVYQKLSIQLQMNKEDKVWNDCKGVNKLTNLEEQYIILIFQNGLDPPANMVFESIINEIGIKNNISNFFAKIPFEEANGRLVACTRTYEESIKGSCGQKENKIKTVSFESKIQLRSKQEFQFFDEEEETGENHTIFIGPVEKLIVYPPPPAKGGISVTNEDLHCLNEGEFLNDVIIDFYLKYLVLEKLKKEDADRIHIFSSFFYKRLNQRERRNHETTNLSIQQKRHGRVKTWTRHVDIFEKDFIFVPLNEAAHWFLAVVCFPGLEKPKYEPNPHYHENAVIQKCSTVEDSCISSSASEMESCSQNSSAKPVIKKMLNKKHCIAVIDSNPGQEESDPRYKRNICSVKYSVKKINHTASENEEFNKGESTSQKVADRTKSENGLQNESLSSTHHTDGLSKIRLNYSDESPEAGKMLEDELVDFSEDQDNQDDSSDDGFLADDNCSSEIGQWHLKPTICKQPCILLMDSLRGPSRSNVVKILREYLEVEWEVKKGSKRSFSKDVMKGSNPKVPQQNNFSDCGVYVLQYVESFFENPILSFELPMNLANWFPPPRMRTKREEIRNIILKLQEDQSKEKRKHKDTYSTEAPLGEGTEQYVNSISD

[3] = molecular target: T4, Sentrin-specific protease 8 (Homo sapiens, UniProt Q96LD8); type: functional;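 further: luminescence read-out of SENP8 inhibition, dose-response confirmation following an ultra-high-throughput screen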
T4 sequence (Q96LD8 whole entry): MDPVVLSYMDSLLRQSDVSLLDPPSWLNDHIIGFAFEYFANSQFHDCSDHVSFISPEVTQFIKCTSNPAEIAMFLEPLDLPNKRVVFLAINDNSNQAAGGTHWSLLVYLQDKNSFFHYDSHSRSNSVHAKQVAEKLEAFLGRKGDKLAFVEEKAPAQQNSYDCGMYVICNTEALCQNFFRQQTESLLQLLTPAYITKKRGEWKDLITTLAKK

Cytochrome P450 2C19 = Cytochrome P450 2C19 (Homo sapiens, UniProt P33261); test: Cytochrome panel assay with activity outcomes. Panel member name: p450-cyp2c19 Compounds with AC50 equal or less than 10 uM are considered active; type: functional; settings: read-out: AC50
Cytochrome P450 2D6 = Cytochrome P450 2D6 (Homo sapiens, UniProt P10635);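 further: CYP2D6 member of a cytochrome P450 panel assay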
Cytochrome P450 1A2 = molecular target: T5, Cytochrome P450 1A2 (Homo sapiens, UniProt P05177);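 further: PubChem cytochrome P450 panel assay, CYP1A2 panel member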
T5 sequence (P05177 whole entry): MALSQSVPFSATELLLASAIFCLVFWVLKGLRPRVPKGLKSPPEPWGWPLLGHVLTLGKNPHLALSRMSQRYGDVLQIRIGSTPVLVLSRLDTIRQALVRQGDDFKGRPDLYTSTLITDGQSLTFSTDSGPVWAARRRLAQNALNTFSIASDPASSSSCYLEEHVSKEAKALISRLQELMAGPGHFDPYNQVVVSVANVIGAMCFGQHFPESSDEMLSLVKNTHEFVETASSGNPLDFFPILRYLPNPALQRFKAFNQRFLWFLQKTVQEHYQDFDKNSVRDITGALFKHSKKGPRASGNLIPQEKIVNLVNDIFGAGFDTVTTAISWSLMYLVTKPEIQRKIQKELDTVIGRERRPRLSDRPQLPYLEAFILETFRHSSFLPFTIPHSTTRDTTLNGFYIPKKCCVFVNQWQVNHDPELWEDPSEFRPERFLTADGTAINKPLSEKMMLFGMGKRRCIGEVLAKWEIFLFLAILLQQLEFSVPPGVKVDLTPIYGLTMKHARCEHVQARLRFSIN

Estrogen receptor beta [4] = molecular target: T6, Estrogen receptor beta (Homo sapiens, UniProt Q92731);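 further: recombinant ER-beta bound to coactivator SRC1 peptide in presence of estradiol agonist; inhibitors block coactivator peptide binding and lower the FRET signal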
Estrogen receptor beta [5] = molecular target: T6, Estrogen receptor beta; test: blockers of SRC-3 recruitment to ERβ – biochemical, ELISA, streptavidin-HRP readout, orthogonal assay, confirmation (AID 1060)
[6] = molecular target: T7, Carboxy-terminal domain RNA polymerase II polypeptide A small phosphatase 1 (Homo sapiens, UniProt Q9GZU7); test: CTDSP1 inhibitors, concentration-response, biochemical, absorbance readout, ultra-high-throughput screen actives (AID 540297); type: functional
T7 sequence (Q9GZU7 whole entry): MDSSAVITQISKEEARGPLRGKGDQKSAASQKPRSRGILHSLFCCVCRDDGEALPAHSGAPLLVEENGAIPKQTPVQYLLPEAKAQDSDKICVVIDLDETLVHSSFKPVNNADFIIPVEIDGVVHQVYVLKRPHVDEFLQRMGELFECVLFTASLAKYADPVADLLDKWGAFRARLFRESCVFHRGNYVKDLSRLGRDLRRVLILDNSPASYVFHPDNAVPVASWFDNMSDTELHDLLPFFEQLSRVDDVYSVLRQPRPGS

[7] = molecular target: T8, Corticotropin-releasing factor receptor 2/Corticotropin-releasing factor-binding protein (Homo sapiens, UniProt P24387+Q13324); test: Dose Response confirmation of uHTS hits for small molecule antagonists of the CRF-binding protein and CRF-R2 receptor complex.; type: functional; settings: read-out: IC50_Mean
T8 sequence (Q13324 whole entry): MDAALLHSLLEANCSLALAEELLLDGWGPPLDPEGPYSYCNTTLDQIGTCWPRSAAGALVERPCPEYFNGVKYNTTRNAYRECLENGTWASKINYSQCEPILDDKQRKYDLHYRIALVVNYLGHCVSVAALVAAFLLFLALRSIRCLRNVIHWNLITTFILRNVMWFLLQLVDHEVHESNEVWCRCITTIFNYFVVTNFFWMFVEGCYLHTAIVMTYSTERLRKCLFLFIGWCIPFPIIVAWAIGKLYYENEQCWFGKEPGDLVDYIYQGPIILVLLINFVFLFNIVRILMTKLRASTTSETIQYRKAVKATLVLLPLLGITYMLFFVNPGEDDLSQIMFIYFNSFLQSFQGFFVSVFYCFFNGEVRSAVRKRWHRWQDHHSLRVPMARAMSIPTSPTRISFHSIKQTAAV
T8 sequence (P24387 whole entry): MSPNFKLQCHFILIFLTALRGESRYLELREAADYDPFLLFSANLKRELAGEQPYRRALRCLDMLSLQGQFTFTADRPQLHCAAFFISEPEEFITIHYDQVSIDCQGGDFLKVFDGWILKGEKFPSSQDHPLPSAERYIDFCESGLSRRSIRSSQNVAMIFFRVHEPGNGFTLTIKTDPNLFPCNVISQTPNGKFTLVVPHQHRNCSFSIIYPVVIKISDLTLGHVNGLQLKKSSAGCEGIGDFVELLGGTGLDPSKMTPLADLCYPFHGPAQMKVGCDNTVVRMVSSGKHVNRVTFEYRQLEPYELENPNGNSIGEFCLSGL

[8] = molecular target: T8, Corticotropin-releasing factor receptor 2/Corticotropin-releasing factor-binding protein; test: activators of CRF receptor 2 with binding protein – uHTS hits, confirmation (AID 602473); type: functional; settings: read-out: EC50_Mean
[9] = molecular target: Glyceraldehyde-3-phosphate dehydrogenase (Homo sapiens, UniProt P04406)
[10] = viability loss in THP-1 monocytes – THP-1 cells, cytotoxicity control for Vif-APOBEC3G degradation inhibitor project, dose response (AID 1117359); type: functional; settings: THP-1

T6 sequence (Q92731 whole entry): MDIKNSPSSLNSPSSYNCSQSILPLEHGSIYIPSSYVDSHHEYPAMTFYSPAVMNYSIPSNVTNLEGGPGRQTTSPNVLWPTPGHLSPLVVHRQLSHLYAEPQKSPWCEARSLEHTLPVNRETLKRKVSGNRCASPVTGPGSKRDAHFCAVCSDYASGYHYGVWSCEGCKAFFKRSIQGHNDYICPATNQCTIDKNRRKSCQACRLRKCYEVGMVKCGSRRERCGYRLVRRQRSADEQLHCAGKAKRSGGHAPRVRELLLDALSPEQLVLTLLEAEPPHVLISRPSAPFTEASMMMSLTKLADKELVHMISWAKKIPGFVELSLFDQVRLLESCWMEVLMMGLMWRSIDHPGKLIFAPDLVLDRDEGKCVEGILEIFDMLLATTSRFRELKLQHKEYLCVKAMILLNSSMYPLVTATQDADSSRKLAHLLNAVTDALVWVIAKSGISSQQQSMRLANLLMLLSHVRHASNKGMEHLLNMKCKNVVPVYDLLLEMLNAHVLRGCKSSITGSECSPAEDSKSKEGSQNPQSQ
Sequence of Cytochrome P450 2C19 (P33261 whole entry): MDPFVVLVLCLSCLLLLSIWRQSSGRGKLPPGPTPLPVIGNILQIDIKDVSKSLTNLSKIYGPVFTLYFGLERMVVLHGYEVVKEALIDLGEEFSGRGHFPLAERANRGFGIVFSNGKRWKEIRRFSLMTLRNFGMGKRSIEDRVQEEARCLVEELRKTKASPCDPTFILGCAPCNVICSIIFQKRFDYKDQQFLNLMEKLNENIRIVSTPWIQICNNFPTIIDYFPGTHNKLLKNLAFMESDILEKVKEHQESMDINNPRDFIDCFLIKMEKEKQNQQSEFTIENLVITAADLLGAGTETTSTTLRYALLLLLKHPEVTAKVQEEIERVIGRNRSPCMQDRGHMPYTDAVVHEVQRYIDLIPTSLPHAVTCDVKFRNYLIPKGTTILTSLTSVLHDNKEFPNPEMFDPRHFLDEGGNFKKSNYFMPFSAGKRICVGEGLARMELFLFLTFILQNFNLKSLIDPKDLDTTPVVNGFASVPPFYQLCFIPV
Sequence of Glyceraldehyde-3-phosphate dehydrogenase (P04406 whole entry): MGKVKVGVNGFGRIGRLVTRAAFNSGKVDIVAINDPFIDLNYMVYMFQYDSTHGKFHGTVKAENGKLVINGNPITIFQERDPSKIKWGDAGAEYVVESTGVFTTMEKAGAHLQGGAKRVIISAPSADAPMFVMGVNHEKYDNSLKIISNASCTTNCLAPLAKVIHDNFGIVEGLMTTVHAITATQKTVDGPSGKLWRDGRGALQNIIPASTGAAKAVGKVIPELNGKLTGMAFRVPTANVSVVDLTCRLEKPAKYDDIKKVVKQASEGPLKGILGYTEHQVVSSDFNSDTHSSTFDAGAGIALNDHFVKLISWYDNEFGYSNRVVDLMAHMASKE
Sequence of Cytochrome P450 2D6 (P10635 whole entry): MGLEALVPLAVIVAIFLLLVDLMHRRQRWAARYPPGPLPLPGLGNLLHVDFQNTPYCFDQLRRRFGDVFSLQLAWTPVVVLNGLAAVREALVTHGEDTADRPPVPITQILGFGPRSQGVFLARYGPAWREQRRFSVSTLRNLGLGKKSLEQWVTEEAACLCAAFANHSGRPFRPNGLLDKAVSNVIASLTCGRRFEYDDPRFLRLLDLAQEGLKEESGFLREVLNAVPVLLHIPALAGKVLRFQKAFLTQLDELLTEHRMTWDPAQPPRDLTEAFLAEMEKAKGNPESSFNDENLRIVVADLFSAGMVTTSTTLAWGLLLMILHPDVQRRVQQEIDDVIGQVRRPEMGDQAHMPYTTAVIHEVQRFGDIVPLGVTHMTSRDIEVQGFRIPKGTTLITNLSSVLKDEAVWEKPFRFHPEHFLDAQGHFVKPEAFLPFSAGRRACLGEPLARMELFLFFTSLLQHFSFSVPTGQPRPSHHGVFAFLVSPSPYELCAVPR

IC50 (Caspase-3): 71.1 µM (active)
IC50 [1]: 2.97 µM (active)
IC50 [2]: 17.2 µM (active)
AC50 (Cytochrome P450 2C19): 35.5 µM (inconclusive)
AC50 (Cytochrome P450 2D6): 28.2 µM (inconclusive)
AC50 (Cytochrome P450 1A2): 31.6 µM (inconclusive)
Compound: C/C(=N\OC(=O)c1ccccc1F)c1nccs1
IC50 [3]: 62.9 µM (active)

IC50 (Caspase-3): 3.24 µM (active)
IC50 [1]: 2.16 µM (active)
IC50 [2]: 2.74 µM (active)
Compound: Cc1ccccc1/C=C\c1nc(O)c2ccccc2n1
IC50 [3]: 2.64 µM (active)

IC50 (Estrogen receptor beta [4]): 7.76 µM (active)
IC50 (Estrogen receptor beta [5]): 9.38 µM (not active)
Compound: CCOc1ccccc1-n1nnnc1SCC(=O)NC(=O)NCc1ccco1

IC50 (Estrogen receptor beta [4]): > 50 µM (not active)
IC50 (Estrogen receptor beta [5]): 14.9 µM (active)
IC50 [6]: 7.35 µM (active)
IC50 [7]: > 47.1 µM (inactive)
EC50 [8]: > 53 µM (inactive)
Compound: COCCn1c(C)cc(C(=O)COC(=O)c2cc3c(s2)CCC3)c1C

IC50 [9]: > 50 µM (inconclusive)
Compound: O=C1C(Cl)=C(N2CCN(Cc3ccc4c(c3)OCO4)CC2)C(=O)N1c1ccnc(Cl)c1

Compound: Cc1ccnc(NC(=O)c2ccc(Cl)c(S(=O)(=O)N3CCCC3)c2)c1
CC50 [10]: > 40 µM (active)

IC50 (Estrogen receptor beta [4]): 2.75 µM (active)
IC50 (Estrogen receptor beta [5]): > 109 µM (not active)
Compound: CC(=O)Nc1nonc1-c1nc2ccccc2n1N(C(C)=O)C(C)=O
